Experimental data from patent publication US11384060B2, “Amide compounds and use thereof” (ALPHALA CO., LTD., priority 2017, dated 2022).
pIC50: −log10 of the molar value.

What was measured:
[1] = biological target: T1, glucagon receptor (GCGR) overexpressed CHO-K1 cells or human primary hepatocytes (Homo sapiens, UniProt P47871); test: Glucagon cAMP inhibition assay (Cisbio cAMP Dynamic 2 HTRF); format: cell-based; conditions: inhibition of glucagon (EC50 concentration) induced cAMP production
T1 construct: expressed in transfected cells; host or cells: GCGR overexpressed CHO-K1 cells or human primary hepatocytes (endogenous receptor)
How it was run: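 HTRF read-out of glucagon-induced cAMP, with IC50 from non-linear regression. Cells (GCGR CHO-K1 or human primary hepatocytes) in HBSS/0.1% BSA/800 nM IBMX took compound dilutions for 30 min (final DMSO 1%), then EC50-level glucagon for 30 min at room temperature, then a 60 min lysis/detection step.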

glucagon receptor (GCGR) = biological target: T2, glucagon receptor (GCGR) (Homo sapiens, UniProt P47871); test: I125-glucagon binding assay (competition, GCGR membrane fractions); conditions: competition with I125-glucagon 0.0625 nM, membrane fractions of GCGR overexpressed CHO-K1 cells
T2 construct: expressed in transfected cells; host or cells: CHO-K1 cells overexpressing GCGR (membrane fractions)
How it was run: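 Competition of 0.0625 nM (final) I^125-glucagon for 30 min at 25° C, after 5 min compound preincubation, using 7.5 μg/well GCGR-overexpressing CHO-K1 membranes in 50 mM Tris pH 7.4, 0.5% BSA. Filtration onto PEI-coated GF/B, micro-beta counting, and non-linear regression gave IC50.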

T2 sequence (P47871 26-477): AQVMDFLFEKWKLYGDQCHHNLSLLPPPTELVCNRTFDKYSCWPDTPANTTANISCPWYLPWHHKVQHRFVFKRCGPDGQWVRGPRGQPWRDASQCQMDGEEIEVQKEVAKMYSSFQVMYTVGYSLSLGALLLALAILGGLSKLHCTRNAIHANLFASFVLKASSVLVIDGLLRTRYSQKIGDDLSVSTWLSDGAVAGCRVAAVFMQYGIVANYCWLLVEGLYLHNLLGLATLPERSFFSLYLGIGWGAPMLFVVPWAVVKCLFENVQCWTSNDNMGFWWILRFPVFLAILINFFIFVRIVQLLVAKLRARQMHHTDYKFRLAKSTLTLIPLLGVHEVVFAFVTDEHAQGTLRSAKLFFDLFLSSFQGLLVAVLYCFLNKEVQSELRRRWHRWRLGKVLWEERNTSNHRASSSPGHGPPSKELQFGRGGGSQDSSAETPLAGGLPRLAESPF
T1 sequence (P47871 26-477): as above

Row | IC50 cAMP [1] [nM] | pIC50 (glucagon receptor (GCGR)) | SMILES
1 | 2300 | 5.78 | CC(C)C[C@@H](COc1cc(F)c(-c2ccc(C(F)(F)F)cc2)c(F)c1)Nc1ccc(C(=O)NCCC(=O)O)cn1 [Compound 9-4, (S)-3-(6-((1-((2,6-difluoro-4′-(trifluoromethyl)-[1,1′-biphenyl]-4-yl)oxy)-4-methylpentan-2-yl)amino)nicotinamido)propanoic Acid]
2 | 2408 | 6.22 | CC(C)[C@@H](COc1ccc(-c2nc3ccccc3s2)c(F)c1)Nc1ccc(C(=O)NCCC(=O)O)cn1 [Compound 9-5, (S)-3-(6-((1-(4-(benzo[d]thiazol-2-yl)-3-fluorophenoxy)-3-methylbutan-2-yl)amino)nicotinamido)propanoic Acid]
3 | 5577 | 5.44 | CC(C)C[C@@H](COc1cnn(-c2ccc(F)cc2F)c1)Nc1ccc(C(=O)NCCC(=O)O)cc1 [Compound 9-6, (S)-3-(4-((1-((1-(2,4-difluorophenyl)-1H-pyrazol-4-yl)oxy)-4-methylpentan-2-yl)amino)benzamido)propanoic Acid]
4 | 1959 | 6.27 | CC(C)[C@@H](COc1ccc(-c2ccc(C(F)(F)F)cc2)nc1)Nc1ccc(C(=O)NCCC(=O)O)cc1 [Compound 10-1, (S)-3-(4-((3-methyl-1-((6-(4-(trifluoromethyl)phenyl)pyridin-3-yl)oxy)butan-2-yl)amino)benzamido)propanoic Acid]
5 | 1805 | 6.59 | CC(C)[C@@H](COc1ccc(-c2ccc(C(F)(F)F)cc2Cl)nc1)Nc1ccc(C(=O)NCCC(=O)O)cc1 [Compound 10-2]
6 | 1206 | 6.29 | CC(C)[C@@H](COc1ccc(-c2ccc(C(F)(F)F)cc2F)nc1)Nc1ccc(C(=O)NCCC(=O)O)cc1 [Compound 10-3, (S)-3-(4-((1-((6-(2-fluoro-4-(trifluoromethyl)phenyl)pyridin-3-yl)oxy)-3-methylbutan-2-yl)amino)benzamido)propanoic Acid]
7 | 4036 | 6.35 | CC(C)[C@@H](COc1ccc(-c2ccc(Cl)cc2Cl)nc1)Nc1ccc(C(=O)NCCC(=O)O)cc1 [Compound 10-4, (S)-3-(4-((1-((6-(2,4-dichlorophenyl)pyridin-3-yl)oxy)-3-methylbutan-2-yl)amino)benzamido)propanoic Acid]
8 | 3690 | 6.36 | CC(C)[C@@H](COc1ccc(-c2cc(Cl)cc(Cl)c2)nc1)Nc1ccc(C(=O)NCCC(=O)O)cc1 [Compound 10-5, (S)-3-(4-((1-((6-(3,5-dichlorophenyl)pyridin-3-yl)oxy)-3-methylbutan-2-yl)amino)benzamido)propenoic Acid]
9 | 2650 | 6.60 | CC(C)[C@@H](COc1ccc(-c2cc3ccccc3o2)nc1)Nc1ccc(C(=O)NCCC(=O)O)cc1 [Compound 10-6, (S)-3-(4-((1-((6-(benzofuran-2-yl)pyridin-3-yl)oxy)-3-methylbutan-2-yl)amino)benzamido)propanoic Acid]
10 | 732 | 6.50 | CCCC[C@@H](COc1ccc(-c2ccc(Cl)cc2Cl)nc1)Nc1ccc(C(=O)NCCC(=O)O)cc1 [Compound 10-7, (S)-3-(4-((1-((6-(2,4-dichlorophenyl)pyridin-3-yl)oxy)hexan-2-yl)amino)benzamido)propanoic Acid]
11 | 344 | 6.74 | CCCC[C@@H](COc1ccc(-c2ccc(C(F)(F)F)cc2F)nc1)Nc1ccc(C(=O)NCCC(=O)O)cc1 [Compound 10-8, (S)-3-(4-((1-((6-(2-fluoro-4-(trifluoromethyl)phenyl)pyridin-3-yl)oxy)hexan-2-yl)amino)benzamido)propanoic Acid]
12 | 465 | 6.90 | CCCC[C@@H](COc1ccc(-c2ccc(C(F)(F)F)cc2)nc1)Nc1ccc(C(=O)NCCC(=O)O)cc1 [Compound 10-9, (S)-3-(4-((1-((6-(4-(trifluoromethyl)phenyl)pyridin-3-yl)oxy)hexan-2-yl)amino)benzamido)propanoic Acid]
13 | 493 | 6.50 | CCCC[C@@H](COc1ccc(-c2cc(Cl)cc(Cl)c2)nc1)Nc1ccc(C(=O)NCCC(=O)O)cc1 [Compound 10-10, (S)-3-(4-((1-((6-(3,5-dichlorophenyl)pyridin-3-yl)oxy)hexan-2-yl)amino)benzamido) propanoic Acid]
14 | 537.4 | 6.57 | CCCC[C@@H](COc1ccc(-c2ccc(C(F)(F)F)cc2Cl)nc1)Nc1ccc(C(=O)NCCC(=O)O)cc1 [Compound 10-11, (S)-3-(4-((1-((6-(2-chloro-4-(trifluoromethyl)phenyl)pyridin-3-yl)oxy)hexan-2-yl)amino)benzamido)propanoic Acid]
15 | 791.6 | 6.74 | CCCC[C@@H](COc1ccc(-c2cc3ccccc3o2)nc1)Nc1ccc(C(=O)NCCC(=O)O)cc1 [Compound 10-12, (S)-3-(4-((1-((6-(benzofuran-2-yl)pyridin-3-yl)oxy)hexan-2-yl)amino)benzamido)propanoic Acid]
16 | 863.9 | 6.65 | CC[C@H](C)[C@@H](COc1ccc(-c2cc3ccccc3o2)nc1)Nc1ccc(C(=O)NCCC(=O)O)cc1 [Compound 10-13, 3-(4-(((2S,3S)-1-((6-(benzofuran-2-yl)pyridin-3-yl)oxy)-3-methylpentan-2-yl)amino)benzamido)propanoic Acid]
17 | 497.1 | 6.51 | CC[C@H](C)[C@@H](COc1ccc(-c2ccc(C(F)(F)F)cc2F)nc1)Nc1ccc(C(=O)NCCC(=O)O)cc1 [Compound 10-14, 3-(4-(((2S,3S)-1-((6-(2-fluoro-4-(trifluoromethyl)phenyl)pyridin-3-yl)oxy)-3-methylpentan-2-yl)amino)benzamido)propanoic Acid]
18 | 301 | 6.75 | CC[C@H](C)[C@@H](COc1ccc(-c2ccc(Cl)cc2Cl)nc1)Nc1ccc(C(=O)NCCC(=O)O)cc1 [Compound 10-15, 3-(4-(((2S,3S)-1-((6-(2,4-dichlorophenyl)pyridin-3-yl)oxy)-3-methylpentan-2-yl)amino)benzamido)propanoic Acid]
19 | 272 | 6.85 | CC[C@H](C)[C@@H](COc1ccc(-c2ccc(C(F)(F)F)cc2Cl)nc1)Nc1ccc(C(=O)NCCC(=O)O)cc1 [Compound 10-16, 3-(4-(((2S,3S)-1-((6-(2-chloro-4-(trifluoromethyl)phenyl)pyridin-3-yl)oxy)-3-methylpentan-2-yl)amino)benzamido)propanoic Acid]
20 | 847 | 6.27 | CC(C)C[C@@H](COc1ccc(-c2ccc(C(F)(F)F)cc2)nc1)Nc1ccc(C(=O)NCCC(=O)O)cc1 [Compound 10-17, (S)-3-(4-((4-methyl-1-((6-(4-(trifluoromethyl)phenyl)pyridin-3-yl)oxy)pentan-2-yl)amino)benzamido)propanoic Acid]
21 | 880 | 6.63 | CC(C)C[C@@H](COc1ccc(-c2ccc(C(F)(F)F)cc2Cl)nc1)Nc1ccc(C(=O)NCCC(=O)O)cc1 [Compound 10-18, (S)-3-(4-((1-((6-(2-chloro-4-(trifluoromethyl)phenyl)pyridin-3-yl)oxy)-4-methylpentan-2-yl)amino)benzamido)propanoic Acid]
22 | 1064 | 6.52 | CC(C)C[C@@H](COc1ccc(-c2ccc(Cl)cc2Cl)nc1)Nc1ccc(C(=O)NCCC(=O)O)cc1 [Compound 10-19, (S)-3-(4-((1-((6-(2,4-dichlorophenyl)pyridin-3-yl)oxy)-4-methylpentan-2-yl)amino)benzamido)propanoic Acid]
23 | 8711 | 5.76 | CC(C)[C@@H](COc1ccc(-c2ccc(C(F)(F)F)cc2Cl)nc1)Nc1ccc(C(=O)NCCC(=O)O)cn1 [Compound 11-1, (S)-3-(6-((1-((6-(2-chloro-4-(trifluoromethyl)phenyl)pyridin-3-yl)oxy)-3-methylbutan-2-yl)amino)nicotinamido)propanoic Acid]
24 | 14398 | 6.03 | CC(C)[C@@H](COc1ccc(-c2cc3ccccc3o2)nc1)Nc1ccc(C(=O)NCCC(=O)O)cn1 [Compound 11-2, (S)-3-(6-((1-((6-(benzofuran-2)pyridin-3-yl)oxy)-3-methylbutan-2-yl)amino)nicotinamido)propanoic Acid]
25 | 14170 | 6.17 | Cc1nn(-c2ncc(OC[C@H](CC(C)C)Nc3ccc(C(=O)NCCC(=O)O)cc3)cn2)cc1C(F)(F)F [Compound 12-1, (S)-3-(4-((4-methyl-1-((2-(3-methyl-4-(trifluoromethyl)-1H-pyrazol-1-yl)pyrimidin-5-yl)oxy)pentan-2-yl)amino)benzamido)propanoic Acid]
26 | 6849 | 6.58 | CC(C)[C@@H](COc1cnc(-c2cc3ccccc3o2)nc1)Nc1ccc(C(=O)NCCC(=O)O)cc1 [Compound 12-2, (S)-3-(4-((1-((2-(benzofuran-2-yl)pyrimidin-5-yl)oxy)-3-methylbutan-2-yl)amino)benzamido)propanoic Acid]
27 | >30000 | 6.22 | CC(C)C[C@@H](COc1cnc(-c2cc3ccccc3o2)nc1)Nc1ccc(C(=O)NCCC(=O)O)cc1 [Compound 12-3, (S)-3-(4-((1-((2-(benzofuran-2-yl)pyrimidin-5-yl)oxy)-4-methylpentan-2-yl)amino)benzamido)propanoic Acid]
